The text below walks through data of patent publication US5574062A, “Coumarin derivative and use thereof” (Morinaga Milk Industry Co., Ltd., priority 1993, dated 1996).

pIC50: −log10 of the molar value. Where two headings read alike, the source gives them in different places.

Data set [1] concerns 12-lipoxygenase. The following applies: known compound used as lead; cited from earlier work.
Data set [2] addresses T1, 12-lipoxygenase (Rattus norvegicus, UniProt F1LQ70).
T1 construct: The platelets were then sonicated at 4° C. and centrifuged at 100,000×g for 30 minutes to obtain a supernatant as a 12-lipoxygenase enzyme solution; from tissue; host or cells: Sprague Dawley rat platelets (from aortic blood), sonicated, 100,000 x g supernatant
T1 sequence (F1LQ70 1-663): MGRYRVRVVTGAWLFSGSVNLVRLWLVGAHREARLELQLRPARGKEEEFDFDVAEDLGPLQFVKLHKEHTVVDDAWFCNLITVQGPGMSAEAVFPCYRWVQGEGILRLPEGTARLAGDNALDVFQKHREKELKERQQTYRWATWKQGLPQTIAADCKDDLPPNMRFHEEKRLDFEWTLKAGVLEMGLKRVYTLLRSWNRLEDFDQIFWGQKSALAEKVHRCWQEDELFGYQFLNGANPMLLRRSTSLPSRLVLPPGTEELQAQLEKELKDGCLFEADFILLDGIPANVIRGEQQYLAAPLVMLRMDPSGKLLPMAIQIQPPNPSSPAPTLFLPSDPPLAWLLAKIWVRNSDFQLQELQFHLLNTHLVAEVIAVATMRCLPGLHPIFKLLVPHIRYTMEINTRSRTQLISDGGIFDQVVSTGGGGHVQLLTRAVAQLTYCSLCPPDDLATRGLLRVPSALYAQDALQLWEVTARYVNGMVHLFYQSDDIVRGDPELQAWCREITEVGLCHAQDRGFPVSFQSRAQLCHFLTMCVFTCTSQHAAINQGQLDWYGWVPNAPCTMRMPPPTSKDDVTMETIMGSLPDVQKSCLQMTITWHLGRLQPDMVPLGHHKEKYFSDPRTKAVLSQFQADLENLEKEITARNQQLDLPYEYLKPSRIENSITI
Put plainly: 12-lipoxygenase inhibition assay (rat platelet supernatant, arachidonic acid, HPLC of 12-HETE). Format: biochemical, Sprague Dawley male rat (platelets). The procedure: (§1) A Sprague Dawley male rat was anesthetized with ether and bled from abdominal aorta using a syringe filled with about one-tenth volume of 3.8% sodium citrate. Blood was centrifuged at 180×g for 15 minutes at room temperature to pellet sanguineous platelet blood plasma. The resultant supernatant was again centrifuged at 1800×g for 10 minutes at 4° C. The pelleted platelets were rinsed twice with a washing buffer (50 mM Tris-hydrochloric acid buffer containing 154 mM sodium chloride and 2 mM EDTA, pH: 7.4). The platelets were then suspended in one-twentieth volume of a resuspension buffer (50 mM Tris-hydrochloric acid buffer containing 154 mM sodium chloride and 5.5 mM glucose, pH: 7.4). The platelets were then sonicated at 4° C. and centrifuged at 100,000×g for 30 minutes to obtain a supernatant as a 12-lipoxygenase enzyme solution.
(§2) The enzyme solution described above was diluted with the resuspension buffer above mentioned to prepare an assay solution so as to include about 2 mU/ml of 12-lipoxygenase. To an aliquot (300 μl) of the assay solution was added 1 μl of a 3 mM indomethacin-ethanol solution, 1 μl of an aqueous 300 mM reduced-glutathione solution, and 3 μl of varied concentrated test compounds solution in ethanol. The resultant mixture was incubated at 37° C. for 5 minutes. Subsequently, 3 μl of a 2.5 mM arachidonic acid solution in ethanol was added to incubate with for another 5 minutes at 37° C., then the reaction was ceased by the addition of 600 μl of methanol. After being centrifuged at 10,000×g for 5 minutes, 12-hydroxyeicosatetraenoic acid recovered in the supernatant was separated with a reverse phase high-performance liquid chromatography equipped with a C-18 column and measured the absorption of diene at 234 nm to quantify the activity of 12-lipoxygenase.
(§3) As test compounds were used the compounds of the present invention prepared in the same methods as in Example 4, Example 5 and Example 8 and the compounds prepared in the same methods as in Comparative Examples 1-5, and as a control was used esculetin (purchased from Tokyo Kasei), a known compound represented by the following formula: [drawing 33] and the test was conducted at varied concentrations.
(§4) The enzyme solution was prepared according to the same manner as in Test Example 1.
(§5) The inhibition assay was performed according to the same method as described in Test Example 1 except that the same samples used in measurement of the 5-lipoxygensase activity were used to estimate IC50 values. […]
(§6) They were measured in the same method as in Test Example 1.

For the next data set, the target named is T2, 5-lipoxygenase (Rattus norvegicus, UniProt P12527).
T2 construct: host or cells: RBL-1 (rat basophilic leukemia cells)
T2 sequence (P12527 1-673): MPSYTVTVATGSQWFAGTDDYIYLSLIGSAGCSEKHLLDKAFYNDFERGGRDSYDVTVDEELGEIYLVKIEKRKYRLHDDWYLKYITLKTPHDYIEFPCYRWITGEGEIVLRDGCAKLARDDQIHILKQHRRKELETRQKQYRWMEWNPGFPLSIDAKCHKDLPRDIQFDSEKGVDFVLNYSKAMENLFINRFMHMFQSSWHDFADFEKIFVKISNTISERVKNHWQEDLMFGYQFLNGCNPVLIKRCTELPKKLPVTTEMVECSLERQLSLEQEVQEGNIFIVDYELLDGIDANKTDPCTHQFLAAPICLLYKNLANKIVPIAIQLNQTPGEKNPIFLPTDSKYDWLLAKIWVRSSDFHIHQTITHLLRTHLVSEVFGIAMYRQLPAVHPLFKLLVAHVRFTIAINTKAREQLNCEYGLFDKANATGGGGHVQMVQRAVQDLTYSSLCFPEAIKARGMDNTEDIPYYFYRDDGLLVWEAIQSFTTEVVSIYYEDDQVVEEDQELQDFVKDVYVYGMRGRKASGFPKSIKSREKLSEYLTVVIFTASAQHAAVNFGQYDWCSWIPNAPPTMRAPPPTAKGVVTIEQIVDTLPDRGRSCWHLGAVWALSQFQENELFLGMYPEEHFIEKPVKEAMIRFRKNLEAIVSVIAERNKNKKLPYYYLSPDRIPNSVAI
The data set is described as follows: 5-lipoxygenase inhibition assay (RBL-1 supernatant, arachidonic acid, HPLC of 5-HETE). The class given is biochemical, rat (basophilic leukemia cells RBL-1, ATCC CRL1378). As to the method:
Rat basophilic leukemia cells (RBL-1, ATCC CRL1378) were cultured in Dulbecco modified Eagle's medium containing 10% new-born bovine serum.
Cultured cells were collected and washed twice with a 50 mM Tris-buffered saline (containing 154 mM sodium chloride, pH: 7.4, hereinafter described as TBS). The cell suspension (4×10^7 cells/ml) was then sonicated and centrifuged at 10,000×g for 10 minutes.
The resultant supernatant was used to prepare an assay solution.
To an aliquot (15 μl) of the enzyme solution (40 mU/ml equivalent) was added 185 μl of TBS, 50 μl of a 2 mM adenosine triphosphate in TBS, 50 μl of a 12 mM calcium chloride in TBS, 1 μl of a 3 mM indomethacin in ethanol solution, 1 μl of an aqueous 300 mM reduced glutathione solution, and 3 μl of varied concentrated test compounds solution in ethanol. The resultant mixture was incubated at 37° C. for 5 minutes. Subsequently, 3 μl of a 2.5 mM arachidonic acid solution in ethanol was added to incubate the mixture for 2 minutes at 37° C. The reaction was ceased by the addition of 600 μl of methanol. After being centrifuged at 10,000×g for 5 minutes, 5-hydroxyeicosatetraenoic acid recovered in the supernatant was separated with a reverse phase high-performance liquid chromatography equipped with a C-18 column and measured the absorption of diene at 234 nm to quantify the activity of the enzyme.
Using the compounds of the present invention prepared in the same manner as in Examples 1-30, and Examples 33-36 as test samples and known baicalein (purchased from Wako Junyaku Kogyo) represented by the following formula 30 as a control: [drawing 34] the tests were performed for dose dependent inhibition to estimate IC50 values
It was prepared in the same method as in Test Example 2.
They were measured in the same method as in Test Example 2.

For data set [3], the system named is 12-lipoxygenase. The data set is described as follows: 12-lipoxygenase inhibition assay (rat platelet supernatant, arachidonic acid, HPLC of 12-HETE). Format: biochemical, Sprague Dawley male rat (platelets). The following applies: comparative tests by the inventors. The procedure:
as §1, §2, §3, §4, §5, §6

Data set [4] is described as follows: Formation of deacylated compounds by esterases in rat platelet enzyme solution (HPLC). Format: in vitro ADME, rat (platelets). The following applies: rat, platelet enzyme solution, 37° C., enzyme solution, read-out: conversion ratio to Formula 34b. The procedure:
(§7) The test was performed to examine whether or not deacylated compounds would be formed due to esterases present in the enzyme solution when the compounds in the third embodiment according to the present invention were treated with the same enzyme solution as in Test Example 3.
(§8) The enzyme solution was prepared according to the same procedure as described in Test Example 1.
(§9) One ml of the above mentioned enzyme solution was diluted with 11 ml of a resuspension buffer. To an aliquot (300 μl) of this enzyme solution was added 3 μl of a 1.0×10^-3 M test compound solution in dimethyl sulfoxide. The mixture was incubated at 37° C. for an indicated time, then the reaction was ceased by the addition of 1 ml of acetonitrile. Twenty μl of the above mixture was subjected to reverse phase high-performance liquid chromatography equipped with a C-18 column to quantify the amount of deacylated products. As a control, a test using 300 μl of the resuspension buffer solution mentioned above instead of the enzyme solution was also performed.
(§10) Conditions of reverse phase high-performance liquid chromatography:
(§11) Column: Superspher RP-18(e) (purchased from Merck), 4.0 mm in diameter, 125 mm in length
(§12) Flow velocity: 1.0 ml/minute
(§13) Eluent: Acetonitrile containing 50 mM NaClO4 and 50 mM orthophosphate-water (55:45)
(§14) Column temperature: 30° C.
(§15) Calibration: Absorbance of 280 nm
(§16) The results of the test upon the compounds of Example 40 (Formula 43b) and Example 57 (Formula 74b) of the compounds according to the present invention will be shown. Since both the compounds of Example 40 (Formula 43b) and Example 57 (Formula 74b) are thought to be converted into the compound of Referential Example 8 (Formula 34b) through deacylation, the retention time of the compound of Referential Example 8 was checked strictly under the employed conditions with reverse phase high-performanceliquid chromatography mentioned above (retention time: 2.49 minutes) and a calibration curve of the compound was made using authentic sample of Referential Example 8.

The subject of data set [5] is esterases present in the enzyme solution. Described as above. Format: in vitro ADME, rat (platelets). The following applies: resuspension buffer instead of the enzyme solution. The procedure:
as §7, §8, §9, §10, §11, §12, §13, §14, §15, §16

[6] abbreviates: Test Example 2, Table 2, read-out: IC50 value of 12-lipoxygenase.
Setting [7] is: Test Example 2, Table 2, read-out: IC50 value of 5-lipoxygenase.
[8] abbreviates: Test Example 5, Table 22, read-out: 12-Lipoxygenase inhibiting activity IC50 value.
[9] abbreviates: Test Example 5, Table 22, read-out: 5-Lipoxygenase inhibiting activity IC50 value.

Turning to `O=c1cc(-c2ccccc2)oc2cc(O)c(O)c(O)c12` [Baicalein, 5,6,7-trihydroxyflavone, reference compound], the “12-lipoxygenase inhibitory activity (in words)” value in the data set on 12-lipoxygenase [1] is recorded as “relatively strong 12-lipoxygenase inhibitory activity”. Further, the “selectivity (in words)” value with 12-lipoxygenase [1] was “relatively high selectivity”. Further, the pIC50 is 7.38 at 12-lipoxygenase [2] (12-Lipoxygenase inhibiting activity IC50 value, Test Example 5, Table 22); 7.38 at 12-lipoxygenase [2] (12-lipoxygenase inhibiting activities of deacylated compounds (IC50 values), Test Example 3, Table 11, value belongs to the deacylated compound); 7.38 against 12-lipoxygenase [2] (IC50 value of 12-lipoxygenase, Test Example 2, Table 2); 7.38 at 12-lipoxygenase [2] (read-out: 12-Lipoxygenase inhibiting activity IC50 value, Test Example 5, Table 22); 5.62 at 5-lipoxygenase; 5.62 on 5-lipoxygenase (read-out: IC50 value of 5-lipoxygenase, Test Example 2, Table 2).
On to `O=c1cc(-c2ccccc2)c2ccc(O)c(O)c2o1` [Comp. Example 3, reference compound], for which the pIC50 on 12-lipoxygenase [2] (Test Example 1, Table 1 and text, read-out: 12-lipoxygenase IC50 value) is 6.59; on 5-lipoxygenase (text of Test Example 1, not shown in Table 1, read-out: 5-lipoxygenase inhibitory activity IC50 value), 6.19. In the data set with 12-lipoxygenase [3], the “selectivity between 12-lipoxygenase and 5-lipoxygenase (in words)” value is reported as “no selectivity was found”.
With `O=c1oc2c(O)c(O)ccc2cc1-c1cc(Br)cs1` [Example 33, 3-(4-bromothiophen-2-yl)-7,8-dihydroxycoumarin], the pIC50 was 7.92 at 12-lipoxygenase [2] (setting [6]) and 6.44 at 5-lipoxygenase (setting [7]).
On to `O=c1oc2cc(O)c(O)cc2cc1-c1cc(Br)cs1` [Example 34, 3-(4-bromothiophen-2-yl)-6,7-dihydroxycoumarin], for which the pIC50 at 12-lipoxygenase [2] (setting [6]) was 8.28; at 12-lipoxygenase [2] (Test Example 3, Table 11, value belongs to the deacylated compound, read-out: 12-lipoxygenase inhibiting activities of deacylated compounds (IC50 values)), 8.28; on 5-lipoxygenase (setting [7]) it was 6.82.
Take `Cc1ccc(-c2cc3ccc(O)c(O)c3oc2=O)o1` [Example 35]: the pIC50 at 12-lipoxygenase [2] (setting [6]) is 7.82; at 5-lipoxygenase (setting [7]) it was 6.47.
Taken in the same sequence, the figures for `Cc1ccc(-c2cc3cc(O)c(O)cc3oc2=O)o1` [Example 36, 3-(5-methylfuran-2-yl)-6,7-dihydroxycoumarin] were 7.85 and 6.60.
Take `CC(=O)Oc1cc2cc(-c3cccc(Cl)c3)c(=O)oc2cc1OC(C)=O` [Example 40]: the metabolised at 0.5 h, 10 µM in data set [4] (reaction time 30 minute) turned out to be 70.7%. Also, in data set [4] (reaction time 60 minute), the metabolised at 1 h, 10 µM is 72.8%. Further, the “formation of deacylated compound in buffer control” value in data set [5] is given as “no deacylated compound (Formula 34b) was formed”.
Regarding `O=c1oc2c(O)c(O)ccc2cc1-c1ccc2ccccc2c1` [Example 61], the pIC50 is 7.47 at 12-lipoxygenase [2] (setting [8]) and 6.64 at 5-lipoxygenase (setting [9]).
In the same order, the values of `O=c1oc2cc(O)c(O)cc2cc1-c1ccc2ccccc2c1` [Example 62] are 8.34 and 7.19.
Taken in the same sequence, the figures for `O=c1oc2c(O)c(O)ccc2cc1-c1csc2ccccc12` [Example 63] were 7.96 and 6.72.
Taken in the same sequence, the figures for `O=c1oc2cc(O)c(O)cc2cc1-c1csc2ccccc12` [Example 64] were 8.00 and 6.74.

One may read the pIC50 as the negative decadic logarithm of the IC50, by convention in mol/L.
